We go through 26 compounds from ChEMBL document CHEMBL4364312, “Design, synthesis and biological evaluation of hydroxypyridinone-coumarin hybrids as multimodal monoamine oxidase B inhibitors and iron chelates against Alzheimer's disease” (Eur J Med Chem, 2019).

Series [1] deals with T1, Amine oxidase [flavin-containing] B (Homo sapiens, UniProt P27338).
T1 sequence (P27338 whole entry): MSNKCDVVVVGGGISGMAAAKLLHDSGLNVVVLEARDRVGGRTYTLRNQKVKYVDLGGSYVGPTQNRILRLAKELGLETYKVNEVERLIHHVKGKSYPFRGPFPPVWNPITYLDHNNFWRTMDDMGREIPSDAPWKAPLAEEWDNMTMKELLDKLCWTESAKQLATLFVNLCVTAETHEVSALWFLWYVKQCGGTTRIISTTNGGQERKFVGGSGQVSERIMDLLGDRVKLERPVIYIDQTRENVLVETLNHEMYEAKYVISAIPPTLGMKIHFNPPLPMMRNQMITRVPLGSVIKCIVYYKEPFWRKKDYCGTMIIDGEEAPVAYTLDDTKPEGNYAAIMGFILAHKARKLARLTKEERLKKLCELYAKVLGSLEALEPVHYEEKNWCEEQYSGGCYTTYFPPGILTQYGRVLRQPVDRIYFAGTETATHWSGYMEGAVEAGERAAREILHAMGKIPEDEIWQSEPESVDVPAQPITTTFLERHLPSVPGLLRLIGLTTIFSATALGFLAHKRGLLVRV
As to the kind of experiment: biochemical.
Description: Inhibition of recombinant human MAO-B expressed in baculovirus infected BTI insect cells incubated for 15 mins with substrate p-Tyramine by fluorescence assay

The target in series [2] is T1, Amine oxidase [flavin-containing] B. The following applies: 0.25 h, read-out: INH.
Description: Inhibition of recombinant human MAO-B expressed in baculovirus infected BTI insect cells at 10 uM incubated for 15 mins with substrate p-Tyramine by fluorescence assay relative to control
Series [3] is described as follows: physchem. The conditions noted are these: DMSO:KCl.
Description: Dissociation constant, pKa2 of compound for 3-(or 5-) hydroxyl group in DMSO:KCl at 30 uM/L incubated for 1 min by UV-Vis spectrophotometry
Series [4] can be described thus: physchem. The conditions noted are these: DMSO:KCl. This is another data set of the same source.
Description: Dissociation constant, pKa1 of compound for protonation of the 4-oxo group in DMSO:KCl at 30 uM/L incubated for 1 min by UV-Vis spectrophotometry
Series [5] deals with Mus musculus. Briefly: Cognition enhancement in scopolamine-induced impairment in ICR mouse assessed as latency time at 10 mg/kg, ip administered once daily for 2 weeks pretreated with scopolamine for 30 mins and measured at 5th day of training session by Morris water maze test (reference value: 40.2 +/- 10.5 sec). It is filed as functional.
The subject of series [6] is U-251. As to the kind of experiment: Cytotoxicity against human U251 cells assessed as reduction in cell viability at 0.01 to 100 uM incubated for 24 hrs by MTS assay. It is filed as cell-based. The conditions noted are these: u-251, 24 h. Background: Tetrazolium assays rely on reduction of a dye to a coloured formazan, in cell work by metabolically active cells.
The subject of series [7] is Mus musculus. Briefly: Cognition enhancement in scopolamine-induced impairment in ICR mouse assessed as distance to target at 10 mg/kg, ip administered once daily for 2 weeks pretreated with scopolamine for 30 mins and measured at 5th day of training session by Morris water maze test (reference value: 10.4 +/- 1.2 meter). It counts as functional.
Series [8] relates to U-251. As to the kind of experiment: Cytoprotective against H2O2-induced cell death in human U251 cells assessed as increase in cell viability at 100 uM preincubated for 24 hrs followed by H2O2 induction and measured after 1 hr by MTS assay (reference value: 50%). It counts as functional.
The subject of series [9] is Mus musculus. Briefly: Cognition enhancement in scopolamine-induced impairment in ICR mouse assessed as number of times to enter target quadrant at 10 mg/kg, ip administered once daily for 2 weeks pretreated with scopolamine for 30 mins and measured at 5th day of training session by Morris water maze test (reference value: 9.0 +/- 0.8). It counts as functional.
A short description of series [10]: Binding affinity to Fe3+ assessed as equilibrium binding constant logK2 in KCl pH 2 to 10.5 at 30 uM incubated for 20 mins by UV-Vis spectrophotometric method.
Series [11] is described as follows: Binding affinity to Fe3+ assessed as equilibrium binding constant logK3 in KCl pH 2 to 10.5 at […] 30 uM by UV-Vis spectrophotometric method.

Usually IC50 stands for the concentration that inhibits the measured activity by half. Read a high IC50 as a need for much substance.

For `Cc1c(O)c(=O)ccn1Cc1cc2ccc(OCc3ccccc3)cc2oc1=O`, in [1], the IC50 was 336 nM. In series [2], the inhibition at 10 µM is 89.6%. The results for the pKa at 1 min, 30 µM in series [3] and in [4] were 9.61 and 3.11, respectively.

In the case of `CCc1c(O)c(=O)ccn1Cc1cc2ccccc2oc1=O`, the inhibition at 10 µM in series [2] worked out at 25%. For the same compound, the pKa at 1 min, 30 µM in series [3] came out at 9.7; in [4], 3.03.

As for `Cc1c(O)c(=O)ccn1Cc1cc2ccc(OCc3cc(F)cc(F)c3)cc2oc1=O`, the inhibition at 10 µM in series [2] was 67.5%. In addition, the pKa at 1 min, 30 µM in series [3] came out at 9.54; in series [4], 3.1.

As for `Cc1cc(=O)c(O)cn1Cc1cc2ccc(OCc3cccc(F)c3)cc2oc1=O`, inhibition in [1] was half-maximal at 193 nM (IC50). Moreover, the inhibition at 10 µM in series [2] turned out to be 85.8%. Further, the pKa at 1 min, 30 µM was 8.99 in series [3] and 3.15 in [4].

For the compound `Cc1c(O)c(=O)ccn1Cc1cc2ccc(OCc3cccc(F)c3)cc2oc1=O`, the Time in [5] came out at 9.6 s. Moreover, in [1], the IC50 is 14.7 nM. Besides, the Activity result in series [6] was “Non-Toxic”; in series [7], 4.2 m; in series [8] it was 57.8%; in series [9] it was 16.6. For the same compound, in series [2], the inhibition at 10 µM was 81.3%. Moreover, the figures for the pKa at 1 min, 30 µM in series [3] and in series [4] were 9.65 and 3.1, respectively.

Regarding `C#CCOc1ccc2cc(Cn3ccc(=O)c(O)c3C)c(=O)oc2c1`, in [2], the inhibition at 10 µM was 47.1%. In addition, the pKa at 1 min, 30 µM amounted to 9.58 in [3] and 3.11 in series [4].

Regarding `Cc1c(O)c(=O)ccn1C` [DEFERIPRONE], the logKb was found to be 27.7 in series [10] and 37.3 in [11]. Besides, the pKa at 1 min, 30 µM was 9.89 in series [3] and 3.65 in series [4].

Turning to `Cc1cc(=O)c(O)cn1Cc1cc2ccc(OCc3ccc(F)cc3)cc2oc1=O`, the IC50 in [1] is 145 nM. Further, the inhibition at 10 µM in series [2] was 87.6%. Further, the pKa at 1 min, 30 µM in series [3] amounted to 8.87; in [4], 3.26.

Turning to `Cc1cc(=O)c(O)cn1Cc1cc2ccc(OCc3cc(F)cc(F)c3)cc2oc1=O`, the inhibition at 10 µM in [2] turned out to be 68.1%. The pKa at 1 min, 30 µM in series [3] is 8.95; in series [4] it was 3.11.

In [1], `CCc1c(O)c(=O)ccn1Cc1cc2ccc(OCc3ccc(F)cc3)cc2oc1=O` yielded an IC50 of 163 nM. In addition, the inhibition at 10 µM in [2] was 91.6%. In addition, the pKa at 1 min, 30 µM in series [3] came to 9.62; in series [4], 3.15.

Take `Cc1cc(=O)c(O)cn1Cc1cc2ccccc2oc1=O`: the inhibition at 10 µM in [2] came out at 6.8%. For the same compound, the results for the pKa at 1 min, 30 µM in series [3] and in series [4] were 8.97 and 3.14, respectively.

Regarding `O=C1O[C@H]([C@@H](O)CO)C(O)=C1O` [ASCORBIC ACID], the Activity in [8] is on record as 57.6%.

For `CCc1c(O)c(=O)ccn1Cc1cc2ccc(OCc3cccc(F)c3)cc2oc1=O`, 265 nM corresponded to half-maximal inhibition in [1] (IC50). Also, the inhibition at 10 µM in series [2] was 91.9%. Also, the pKa at 1 min, 30 µM was 9.69 in series [3] and 3.12 in [4].

For the compound `CCc1c(O)c(=O)ccn1Cc1cc2ccc(OCc3cc(F)cc(F)c3)cc2oc1=O`, it took 223 nM to reach half-maximal inhibition in series [1] (IC50). Moreover, in series [2], the inhibition at 10 µM stood at 91.7%. Also, the pKa at 1 min, 30 µM in [3] is 9.7; in series [4] it was 3.08.

For `CCc1c(O)c(=O)ccn1Cc1cc2ccc(OCc3ccccc3)cc2oc1=O`, in series [1], the IC50 was 129 nM. Also, the inhibition at 10 µM in [2] turned out to be 91.9%. The results for the pKa at 1 min, 30 µM in series [3] and in series [4] were 9.71 and 3.11, respectively.

Turning to `Cc1c(O)c(=O)ccn1Cc1cc2ccc(OCc3cccc(Cl)c3)cc2oc1=O`, the inhibition at 10 µM in series [2] was 21.2%. In addition, the figures for the pKa at 1 min, 30 µM in series [3] and in series [4] were 9.67 and 3.17, respectively.

Consider `C#CCOc1ccc2cc(Cn3cc(O)c(=O)cc3C)c(=O)oc2c1`, for which the inhibition at 10 µM in [2] is 50.6%. For the same compound, the results for the pKa at 1 min, 30 µM in [3] and in series [4] were 8.94 and 3.07, respectively.

In the case of `C#CCN(C)Cc1ccccc1` [PARGYLINE], in series [5], the Time stood at 5.6 s. Moreover, the Activity is on record as 6.6 m in series [7], 61.5% in [8] and 16.3 in series [9].

In series [1], `Cc1cc(=O)c(O)cn1Cc1cc2ccc(OCc3ccccc3)cc2oc1=O` had an IC50 of 290 nM. The inhibition at 10 µM in [2] was 86.5%. Also, the pKa at 1 min, 30 µM in series [3] was 9.03; in series [4], 3.12.

Regarding `Cc1c(O)c(=O)ccn1Cc1cc2ccccc2oc1=O`, the inhibition at 10 µM in [2] was found to be 22.4%. In addition, the pKa at 1 min, 30 µM in series [3] turned out to be 9.68; in series [4] it was 3.07.

Compound `CCc1c(O)c(=O)ccn1Cc1cc2ccc(OCc3cccc(Cl)c3)cc2oc1=O` showed an IC50 in series [1] of 425 nM. Further, the inhibition at 10 µM in series [2] is 92.5%. Besides, the pKa at 1 min, 30 µM in series [3] was determined as 9.76; in [4], 3.1.

On to `COc1ccc2cc(Cn3cc(O)c(=O)cc3C)c(=O)oc2c1`, for which the inhibition at 10 µM in series [2] stood at 38.3%. The pKa at 1 min, 30 µM was 9 in [3] and 3.15 in series [4].

As to `C#CCOc1ccc2cc(Cn3ccc(=O)c(O)c3CC)c(=O)oc2c1`, half-maximal inhibition in series [1] (IC50) was put at 121 nM. Besides, in [2], the inhibition at 10 µM turned out to be 78.1%. Also, the pKa at 1 min, 30 µM in [3] worked out at 9.63; in [4], 2.95.

Compound `Cc1cc(=O)c(O)cn1Cc1cc2ccc(OCc3cccc(Cl)c3)cc2oc1=O` came in with an IC50 in series [1] of 126 nM. Further, the inhibition at 10 µM in series [2] worked out at 82%. Besides, the pKa at 1 min, 30 µM was found to be 9.07 in series [3] and 3.16 in series [4].

In the case of `CCc1c(O)c(=O)ccn1Cc1cc2ccc(OC)cc2oc1=O`, the inhibition at 10 µM in series [2] was found to be 50.7%. The pKa at 1 min, 30 µM amounted to 9.7 in series [3] and 3.09 in series [4].

On to `COc1ccc2cc(Cn3ccc(=O)c(O)c3C)c(=O)oc2c1`, for which inhibition in series [1] was half-maximal at 91.9 nM (IC50). The inhibition at 10 µM in [2] was found to be 94.4%. Moreover, the pKa at 1 min, 30 µM in series [3] was found to be 9.66; in series [4] it was 3.13.
